From US3972872A, “6-[α-(ω-Guanidinoalkanoylamido)acylamido]penicillanic acids” (Pfizer Inc., priority 1975, dated 1976)
≈ marks a conversion by molar mass, not a printed value. Where a name gives a salt, the structure may show the parent alone. Read-outs that look alike come from different tables or passages of the source. Each block holds one compound with its values, some of them ahead of it.

What was measured:
Proteus vulgaris A059 = test: In vitro MIC, Proteus vulgaris A059; format: cell-based; settings: unit assumed
From the text: (§1) The in vitro spectra of a number of 6-[α-(ω-guanidinoalkanoylamido)acylamido]penicillanic acids of this invention against certain gram-negative bacteria are presented in Table I below. […] Th compounds of Table I have the formula

Proteus mirabilis C015 = test: In vitro MIC, Proteus mirabilis C015; format: cell-based; settings: unit assumed
From the text: as §1

E. coli 266 = test: In vitro MIC, E. coli 266, two-fold serial dilution; format: cell-based, Escherichia coli; settings: unit assumed
From the text: as §1

Pseudo. aeruginosa 104 = test: In vitro MIC, Pseudo. aeruginosa 104; format: cell-based, Pseudomonas aeruginosa; settings: unit assumed
From the text: as §1

Serratia marcescens A001 = test: In vitro MIC, Serratia marcescens A001; format: cell-based; settings: unit assumed
From the text: as §1

Pseudo. aeruginosa 490 = test: In vitro MIC, Pseudo. aeruginosa 490; format: cell-based, Pseudomonas aeruginosa; settings: unit assumed
From the text: as §1

Pseudo. aeruginosa 173 = test: In vitro MIC, Pseudo. aeruginosa 173; format: cell-based, Pseudomonas aeruginosa; settings: unit assumed
From the text: as §1

Escherichia coli 266 = test: In vivo protection of mice versus Escherichia coli 266; settings: Escherichia coli, 266, sc, 96 h, read-out: % Protection
From the text: (§2) Additionally, the compounds of this invention are active versus gram-positive and gram-negative bacteria in vivo via the parenteral route of administration in animals, including man. Their in vivo activity in animals, including man, by the oral route of administration is more limited as regards susceptible organisms. Nevertheless, oral in vivo activity against Escherichia coli and Staphylococcus aureus is a common property of many compounds of this invention. Table II below presents the comparative in vivo spectra of several compounds within the scope of this invention against D-α-aminobenzylpenicillin (Ampicillin).
(§3) The acute systemic infections in mice were produced by the intraperitoneal inoculation of standardized cultures suspended in 5% hog gastric mucin. Treatment with the drugs was initiated 0.5 hours after inoculation of the infecting organism. A second dose was administered 4 hours later. The PD50 values were calculated after a hold period of 4 days.

Proteus mirabilis C020 = test: In vitro MIC, Proteus mirabilis C020; format: cell-based; settings: unit assumed
From the text: (§4) The in vitro activity of the herein-described compounds renders them useful for topical application in the form of ointments, creams and the like, or for sterilization purposes, e.g., sick room utensils.
as §1

Proteus rettgeri B006 = test: In vitro MIC, Proteus rettgeri B006; format: cell-based; settings: unit assumed
From the text: as §4, §1

E. coli = test: PD50 versus acute systemic E. coli infection in mice; format: in vivo; settings: for ED50: Escherichia coli, 96 h, E. coli, mice
From the text: as §2, §3

S. aureus = test: PD50 versus acute systemic S. aureus infection in mice; format: in vivo; settings: for ED50: Staphylococcus aureus, 96 h, S. aureus, mice
From the text: as §2, §3

P. aeruginosa = test: PD50 versus acute systemic P. aeruginosa infection in mice; format: in vivo; settings: for ED50: Pseudomonas aeruginosa, 96 h, read-out: PD50
From the text: as §2, §3

[1] = Serum levels in dogs, single intramuscular dose; settings: for Serum Levels: intramuscular 25 mg./kg.
[2] = Urine levels and urinary recovery in dogs, single intramuscular dose
[3] = 50 mg./kg., mice, subcutaneous route

Compound: CN(CC(=O)N[C@@H](C(=O)N[C@@H]1C(=O)N2[C@@H]1SC(C)(C)[C@@H]2C(=O)OCOC(=O)C(C)(C)C)c1ccccc1)C(=N)N [CH2 N(CH3)--C(NH)NH2, R=POM, 6-{D-2-Phenyl-2-[(1-Methylguanidino)Acetamido]Acetamido}-Penicillanic Acid, Pivaloyloxymethyl Ester, Hydrochloride]
MIC (Proteus mirabilis C015): 12.5 µg/mL | MIC (E. coli 266): 12.5 µg/mL | MIC (Pseudo. aeruginosa 490): 3.12 µg/mL | responders at 50 mg/kg (Escherichia coli 266): 70%

Compound: CC1(C)S[C@@H]2[C@H](NC(=O)[C@H](NC(=O)C3CCCN(C(=N)N)C3)c3ccccc3)C(=O)N2[C@H]1C(=O)O (some centres unmarked) [C(NH)NH2, R=H]
MIC (Proteus vulgaris A059): 6.25 µg/mL (≈ 12.4 µM) | MIC (Proteus mirabilis C015): 3.12 µg/mL (≈ 6.21 µM) | MIC (E. coli 266): 6.25 µg/mL (≈ 12.4 µM) | MIC (Pseudo. aeruginosa 104): 12.5 µg/mL (≈ 24.9 µM) | MIC (Serratia marcescens A001): 6.25 µg/mL (≈ 12.4 µM) | MIC (Pseudo. aeruginosa 490): 1.56 µg/mL (≈ 3.1 µM) | MIC (Pseudo. aeruginosa 173): 6.25 µg/mL (≈ 12.4 µM) | responders at 50 mg/kg (Escherichia coli 266; [3]): 80%

Compound: CC(C)(C)C(=O)OCOC(=O)[C@@H]1N2C(=O)[C@@H](NC(=O)[C@H](NC(=O)CNC(=N)N)c3ccccc3)[C@H]2SC1(C)C [CH2 NH--C(NH)NH2, R=POM, 6-[D-2-Phenyl-2-(Guanidinoacetamido)Acetamido]Penicillanic Acid, Pivaloyloxymethyl Ester, Hydrochloride]
MIC (Proteus mirabilis C015): 50 µg/mL | MIC (E. coli 266): 25 µg/mL | MIC (Pseudo. aeruginosa 490): 0.78 µg/mL | responders at 50 mg/kg (Escherichia coli 266; [3]): 90%

Compound: CC(C)(C)C(=O)OCOC(=O)[C@@H]1N2C(=O)[C@@H](NC(=O)[C@H](NC(=O)CCNC(=N)N)c3ccccc3)[C@H]2SC1(C)C [CH2 CH2 NH--C(NH)NH2, R=POM, Hydrochloride]
MIC (Proteus mirabilis C015): 0.39 µg/mL | MIC (E. coli 266): 6.25 µg/mL | MIC (Pseudo. aeruginosa 490): 6.25 µg/mL | responders at 50 mg/kg (Escherichia coli 266; [3]): 100%

Compound: CC1(C)S[C@@H]2[C@H](NC(=O)[C@H](NC(=O)CNC(=N)N)c3ccccc3)C(=O)N2[C@H]1C(=O)O [A, 6-[D-2-Phenyl-2-(Guanidinoacetamido)Acetamido]Penicillanic Acid]
MIC (Proteus vulgaris A059): 1.56 µg/mL (≈ 3.48 µM) | MIC (Proteus mirabilis C020): 1.56 µg/mL (≈ 3.48 µM) | MIC (Proteus mirabilis C015): 1.56 µg/mL (≈ 3.48 µM) | ED50 (E. coli; oral): 50 mg/kg | ED50 (E. coli; sc, subcutaneous): 6 mg/kg | in vivo oral activity against E. coli (in words) (E. coli; oral): dual in vivo activity | ED50 (S. aureus; oral): 68 mg/kg | ED50 (S. aureus; sc, subcutaneous): 13 ± 3.9 mg/kg | in vivo oral activity against S. aureus (in words) (S. aureus; oral): dual in vivo activity | MIC (E. coli 266): 1.56 µg/mL (≈ 3.48 µM) | ED50 (P. aeruginosa; po): > 200 mg/kg | ED50 (P. aeruginosa; sc): 41 ± 13 mg/kg | activity against Pseudomonas aeruginosa (in words) (P. aeruginosa; in vivo, mice): active | concentration at 1 h ([1]; dog, serum, im, 0.05 mg/kg): 78 µg/mL | concentration at 2 h ([1]; dog, serum, im, 0.05 mg/kg): 48 µg/mL | concentration at 0.5 h ([1]; dog, serum, im, 25 mg/kg): 30.4 µg/mL | concentration at 1 h ([1]; dog, serum, im, 25 mg/kg): 26.2 µg/mL | concentration at 2 h ([1]; dog, serum, im, 25 mg/kg): 10.3 µg/mL | concentration at 3 h ([1]; dog, serum, im, 25 mg/kg): 2.1 µg/mL | Serum Levels ([1]; dogs, 0 hours): 0 ng/mL | Serum Levels ([1]; dogs, 4 hours): 0 ng/mL | Serum Levels ([1]; dogs, 6 hours): 0 ng/mL | blood levels of drug compared with [B] (in words) ([1]; parenteral, dogs): clearly superior | MIC (Pseudo. aeruginosa 104): 1.56 µg/mL (≈ 3.48 µM) | MIC (Serratia marcescens A001): 6.25 µg/mL (≈ 13.9 µM) | MIC (Pseudo. aeruginosa 490): 1.56 µg/mL (≈ 3.48 µM) | MIC (Proteus rettgeri B006): 12.5 µg/mL (≈ 27.9 µM) | MIC (Pseudo. aeruginosa 173): 1.56 µg/mL (≈ 3.48 µM) | concentration at 0.5 h ([2]; dog, urine, im, 25 mg/kg): 366 µg/mL | concentration at 1 h ([2]; dog, urine, im, 25 mg/kg): 710 µg/mL | concentration at 2 h ([2]; dog, urine, im, 25 mg/kg): 1020 µg/mL | concentration at 3 h ([2]; dog, urine, im, 25 mg/kg): 554 µg/mL | concentration at 4 h ([2]; dog, urine, im, 25 mg/kg): 219 µg/mL | concentration at 5 h ([2]; dog, urine, im, 25 mg/kg): 130 µg/mL | dose excreted ([2]; dog, urine, im, 25 mg/kg): 35.4% | Concentrations in Urine ([2]; dogs, intramuscular 25 mg./kg., 0 hours): 0 ng/mL | total urinary recovery of drug compared with [B] (in words) ([2]; parenteral, dogs): clearly superior | responders at 50 mg/kg (Escherichia coli 266): 100%

The next lines start with results.

MIC (Proteus vulgaris A059): 12.5 µg/mL (≈ 23.8 µM) | MIC (Proteus mirabilis C015): 12.5 µg/mL (≈ 23.8 µM) | MIC (E. coli 266): 6.25 µg/mL (≈ 11.9 µM) | MIC (Pseudo. aeruginosa 104): 6.25 µg/mL (≈ 11.9 µM) | MIC (Serratia marcescens A001): 25 µg/mL (≈ 47.7 µM) | MIC (Pseudo. aeruginosa 490): 1.56 µg/mL (≈ 2.97 µM) | MIC (Pseudo. aeruginosa 173): 3.12 µg/mL (≈ 5.95 µM)
Compound: CC1(C)S[C@@H]2[C@H](NC(=O)[C@H](NC(=O)Cc3ccc(NC(=N)N)cc3)c3ccccc3)C(=O)N2[C@H]1C(=O)O [NH--C(NH)NH2 [4th of 4], R=H]
responders at 50 mg/kg (Escherichia coli 266; [3]): 20%

MIC (Proteus vulgaris A059): 3.12 µg/mL (≈ 6.75 µM) | MIC (Proteus mirabilis C020): 12.5 µg/mL (≈ 27 µM) | MIC (Proteus mirabilis C015): 0.78 µg/mL (≈ 1.69 µM) | MIC (E. coli 266): 3.12 µg/mL (≈ 6.75 µM) | MIC (Pseudo. aeruginosa 104): 6.25 µg/mL (≈ 13.5 µM) | MIC (Serratia marcescens A001): 6.25 µg/mL (≈ 13.5 µM) | MIC (Pseudo. aeruginosa 490): 3.12 µg/mL (≈ 6.75 µM) | MIC (Proteus rettgeri B006): 50 µg/mL (≈ 108 µM) | MIC (Pseudo. aeruginosa 173): 3.12 µg/mL (≈ 6.75 µM)
Compound: CC1(C)S[C@@H]2[C@H](NC(=O)[C@H](NC(=O)CCNC(=N)N)c3ccccc3)C(=O)N2[C@H]1C(=O)O [CH2 CH2 NH--C(NH)NH2, R=H, 6-[D-2-Phenyl-2-(Guanidinopropionamido)Acetamido]Penicillanic Acid]
responders at 50 mg/kg (Escherichia coli 266; [3]): 70%

MIC (Proteus vulgaris A059): 3.12 µg/mL (≈ 6.11 µM) | MIC (Proteus mirabilis C020): 25 µg/mL (≈ 49 µM) | MIC (Proteus mirabilis C015): 6.25 µg/mL (≈ 12.2 µM) | MIC (E. coli 266): 3.12 µg/mL (≈ 6.11 µM) | MIC (Pseudo. aeruginosa 104): 1.56 µg/mL (≈ 3.06 µM) | MIC (Serratia marcescens A001): 12.5 µg/mL (≈ 24.5 µM) | MIC (Pseudo. aeruginosa 490): 0.78 µg/mL (≈ 1.53 µM) | MIC (Proteus rettgeri B006): 12.5 µg/mL (≈ 24.5 µM) | MIC (Pseudo. aeruginosa 173): 1.56 µg/mL (≈ 3.06 µM)
Compound: CC1(C)S[C@@H]2[C@H](NC(=O)[C@H](NC(=O)c3cccc(NC(=N)N)c3)c3ccccc3)C(=O)N2[C@H]1C(=O)O [NH--C(NH)NH2 [2nd of 4], R=H]
responders at 50 mg/kg (Escherichia coli 266; [3]): 60%
